Data: patent US9890111B2, “Crystal structure of bifunctional transglycosylase PBP1b from E. coli and inhibitors thereof” (Academia Sinica, priority 2008, dated 2018)
≈ marks a conversion by molar mass, not a printed value.

How the values were obtained:
[1] = system: Mycobacterium smegmatis (ATCC11565, MS); assay: Minimal inhibitory concentration (MIC), MS; assay type: cell-based; settings: Mycolicibacterium smegmatis, ATCC11565, Mycobacterium smegmatis ATCC11565; read-out: MIC MS
Procedure: (§1) The minimal inhibitory concentration (MIC) of tested compounds was determined following the NCCLS standard. The experiments were conducted in 96-well microtiter plates using two-fold dilutions in Muller-Hilton broth with (Streptococcus pneumonia) or without blood (Bacillus subtilis, Enterococcus faecalis, Staphylococcus aureus, Escherichia coli, MRSA, Actinetobacter baumannii, Pseudomonas aeruginosa, Stenotrophomonas maltophilia, and Mycobacterium smegmatis). Exponentially growing cells at 5×10^5 cells/ml were incubated with test compounds at various concentrations. After an 18 h to 24 h incubation at 37° C., MIC was determined as the minimal concentration of the compound that prevents bacterial growth.

[2] = system: methicillin-resistant Staphylococcus aureus (ATCC33592, MRSA); assay: Minimal inhibitory concentration (MIC), MRSA; assay type: cell-based; settings: Staphylococcus aureus, methicillin-resistant Staphylococcus aureus ATCC33592; read-out: MIC MRSA
Procedure: as §1

[3] = target: T1, penicillin-binding protein 1b from E. coli (transglycosylase) (Escherichia coli, UniProt P02919); assay: Lipid II polymerization / transglycosylase (TG) activity assay; assay type: biochemical
T1 construct: PBP1b[58-804] was amplified from E. coli genomic DNA and cloned into the expression vector pET15b; His6 (N, cleaved yes); made in house; host or cells: E. coli BL21(DE3)
Procedure: Lipid II polymerization assays were carried out by incubating 100 μM fluorophore-labeled lipid II and penicillin-binding protein 1b from E. coli in tubes containing 10 ng/μL N-acetyl muramidase in 50 mM Tris.HCl (pH 8.0), 10 mM MgCl2, 0.1% Triton X-100, 10% DMSO, and 15% MeOH for 30 minutes (Van Nieuwenhze et al. J Am Chem Soc 2002, 124, 3656.). The fluorophore can be dansyl chloride, NBD, BODIPY, fluorescein. Reaction supernatants were then injected onto an anion-exchange HPLC column (SAX1, Supelco Co.) and eluted with a linear gradient of ammonium acetate (20 mM to 0.5 M) in methanol. The eluant was monitored for fluorescence with λex=466 nm and λem=535 nm.
Purified protein was concentrated in 20 mM Tris-HCl (pH 8.0), 300 mM NaCl, and 1 mM DDM. Instead of using Dansyl lipid II, 6-(N-(7-nitrobenz-2-oxa-1,3-diazol-4-yl)amino) hexanoyl (NBD)-labeled Lipid II was prepared as described (Taubes G (2008) Science 321:356-361; Payne D J (2008) Science 321:1644-1645) and used as a substrate to measure TG enzymatic activity, with approach similar to what has been described previously (Holtje J V (1998) Microbiol Mol Biol Rev 62:181-203). Assays were carried out by using the following condition: NBD-Lipid II, 20 nM protein, 50 mM Tris HCl (pH 8.0), 10 mMCaCl2, 0.085% decyl PEG (Anatrace), and 15% MeOH at 37° C. for 0, 1, 3, 5, 7, 9, 20, and 30 min. The concentration of NBD-Lipid II was varied from 1 to 100 μM to determine the rate of the TG activity. After the reaction, 200 μM moenomycin was added to stop the reaction, and 13 μM muramidase (Sigma-Aldrich) was added to digest the TG products to result in NBD-Lipid II without lipid tails. The fluorescent signal decrease of substrate and increase of NBD-Lipid II without lipid tails were detected by anion-exchange column SAX1 (Supelco) on HPLC (Hitachi). The elution procedures was a linear gradient of ammonium acetate (20 mM to 1 M) in MeOH monitored at λexcitation=466 nm and λemission=535 nm. The kinetic parameter was estimated by following the Michaelis-Menten equation. To investigate the importance of transmembrane (TM) helix, PBP1b and PBP1bΔTM (residues Met-1 to Leu-87 were removed) were extracted with the buffer containing 20 mM Tris-HCl (pH 8.0), 300 mM NaCl, and 13 mM FOS-CHOLINE-14 (Anatrace). The protein was purified by nickel chelation chromatography in the presence of 1 mM DDM. The activity assay was carried out by using the following condition: 12 μM NBD-Lipid II, 20 nM protein, 50 mM Tris-HCl (pH 8.0), 10 mM CaCl2, 0.085% decyl PEG, and 15% MeOH at 37° C. for time 0, 1, 3, 5, 7, 9, 20, and 30 min. The initial velocity was used to compare the activity of full-length PBP1b and PBP1bΔTM.

[4] = target: E. coli PBP1b (Escherichia coli, UniProt P02919); assay: Fluorescence anisotropy (FA) binding assay; settings: library screening
Procedure: Fluorescence anisotropy measurements were carried out in triplicates in the wells of 384-well or 1536-well plates using a fluorescence detector that is capable to measure fluorescence anisotropy or fluorescencepolarization. For examples, a laser fluorimetry equipped with a 488 nm laser (IsoCyte) from Blueshift Biotech, Inc., (Sunnyvale, Calif., USA) of aViewlux from Perkin Elmer has been used for the application. Various buffers, salts, pH values, and divalent cations (Ca^++, Mg^++, Co^++) were optimized for fluorescence anisotropy measurements. KD and KI determinations were carried out in 100 mM NaCl, 10 mM Tris, pH 8.0. Fluorescence anisotropy values (A) were calculated using the equation: A=(I∥−G*I^⊥)/(I∥+2G*I^⊥), where I∥ is the fluorescence intensity of emitted light parallel to excitation, I^⊥ is the fluorescence intensity of emitted light perpendicular to excitation, and G is the […] that corrects for instrument bias. The G factor is experimentally determined for each run using the probe-only well as the basal anisotropy.
A high-throughput FA assay for transglycosylase was performed as disclosed in co-pending U.S. application Ser. No. 12/354,717. Concentration-dependent changes in fluorescence anisotropy was observed when E. coli PBP1b bound to F-Moe. The maximum anisotropy value was 0.2. […]
KI and IC50 values were determined from competitive displacement assay. […]

[5] = system: Escherichia coli (ATCC 25922, EC); assay: Minimal inhibitory concentration (MIC), EC; assay type: cell-based; settings: ATCC25922; Escherichia coli ATCC 25922; read-out: MIC EC
Procedure: as §1

[6] = system: Staphylococcus aureus (ATCC29213, SA); assay: Minimal inhibitory concentration (MIC), SA; assay type: cell-based; settings: Staphylococcus aureus, ATCC29213, Staphylococcus aureus ATCC29213; read-out: MIC SA
Procedure: as §1

[7] = target: PBP (Escherichia coli, UniProt P02919); assay: PBP binding affinity by SPR; settings: read-out: steady-state affinity (KD)
Text: Candidate compounds to be tested were labeled with fluorescein (6-carboxyfluoresein N-hydroxysuccinimide ester) under basic conditions to prepare the fluorescent probe. One major concern about the fluorescent probe used in the FA assay is the probe itself; either the fluorophore or the structure modification, may interfere with the binding between the targeted protein and the small molecule. Therefore, the PBP binding affinities of Moe A and the fluorescent probe are compared using SPR.

T1 sequence (P02919 58-804): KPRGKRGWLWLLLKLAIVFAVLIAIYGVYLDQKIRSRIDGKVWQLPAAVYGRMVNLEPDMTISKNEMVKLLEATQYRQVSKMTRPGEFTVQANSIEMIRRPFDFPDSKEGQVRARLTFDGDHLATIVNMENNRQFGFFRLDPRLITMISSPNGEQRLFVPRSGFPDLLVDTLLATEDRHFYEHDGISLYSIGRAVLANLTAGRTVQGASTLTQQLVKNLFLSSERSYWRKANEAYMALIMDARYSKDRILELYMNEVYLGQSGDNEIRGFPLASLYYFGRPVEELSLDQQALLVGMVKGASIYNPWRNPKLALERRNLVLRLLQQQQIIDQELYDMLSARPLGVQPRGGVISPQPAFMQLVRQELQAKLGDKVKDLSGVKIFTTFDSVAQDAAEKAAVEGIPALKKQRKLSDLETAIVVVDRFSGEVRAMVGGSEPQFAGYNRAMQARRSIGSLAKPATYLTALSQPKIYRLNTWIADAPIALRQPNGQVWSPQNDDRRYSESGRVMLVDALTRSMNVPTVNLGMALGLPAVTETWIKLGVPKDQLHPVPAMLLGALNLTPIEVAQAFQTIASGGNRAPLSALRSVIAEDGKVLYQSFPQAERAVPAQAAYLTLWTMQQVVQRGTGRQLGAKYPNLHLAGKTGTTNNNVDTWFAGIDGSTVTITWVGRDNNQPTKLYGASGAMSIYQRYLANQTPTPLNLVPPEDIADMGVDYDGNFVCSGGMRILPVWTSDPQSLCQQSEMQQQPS
Sequence of E. coli PBP1b (P02919 whole entry): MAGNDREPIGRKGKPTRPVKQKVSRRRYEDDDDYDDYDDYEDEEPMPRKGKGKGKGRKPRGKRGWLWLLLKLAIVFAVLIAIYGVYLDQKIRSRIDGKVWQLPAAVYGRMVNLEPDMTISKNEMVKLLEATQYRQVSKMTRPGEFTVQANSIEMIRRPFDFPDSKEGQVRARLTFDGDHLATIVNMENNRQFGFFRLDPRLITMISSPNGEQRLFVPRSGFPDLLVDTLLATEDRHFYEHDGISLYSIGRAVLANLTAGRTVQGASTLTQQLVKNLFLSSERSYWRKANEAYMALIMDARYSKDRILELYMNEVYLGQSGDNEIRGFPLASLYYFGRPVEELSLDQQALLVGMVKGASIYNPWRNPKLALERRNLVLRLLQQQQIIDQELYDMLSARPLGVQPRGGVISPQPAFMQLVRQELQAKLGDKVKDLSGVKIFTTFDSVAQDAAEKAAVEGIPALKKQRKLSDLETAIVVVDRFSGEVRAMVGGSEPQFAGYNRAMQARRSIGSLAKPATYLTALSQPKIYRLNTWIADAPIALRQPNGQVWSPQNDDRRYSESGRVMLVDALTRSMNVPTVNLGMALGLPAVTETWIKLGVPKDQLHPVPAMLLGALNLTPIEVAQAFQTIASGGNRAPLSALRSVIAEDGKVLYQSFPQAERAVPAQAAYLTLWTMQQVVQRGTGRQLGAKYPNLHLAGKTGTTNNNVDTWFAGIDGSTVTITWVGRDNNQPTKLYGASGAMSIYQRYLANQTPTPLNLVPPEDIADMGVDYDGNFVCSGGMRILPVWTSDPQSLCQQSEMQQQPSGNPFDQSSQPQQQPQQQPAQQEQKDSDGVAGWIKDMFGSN
Sequence of PBP (P02919 58-804): as the sequence (P02919 58-804) above

Row | SMILES | MIC [1] | MIC [2] | IC50 [3] | transglycosylase inhibition activity (in words) [3] | TG Activity at various concentration of cmpd: 25 μM ([3]; 25 μM compound, TG activity remaining (0% = full inhibition)) | remaining activity at 50 µM ([3]; read-out: TG Activity at various concentration of cmpd: 50 μM) | remaining activity at 100 µM ([3]; read-out: TG Activity at various concentration of cmpd: 100 μM) | inhibition activity in fluorescence anisotropy (in words) [4] | MIC [5] | MIC [6] | Kd [7]
1 | O=C(Nc1cc(Cl)ccc1Oc1ccccc1)c1cc(Br)cc(Br)c1O [Compound 009] | 0.25 µg/mL (≈ 0.502 µM) | 0.25 µg/mL (≈ 0.502 µM) | 45 µM | showed inhibition activities | 100% | 20% | 0% | showed inhibition activities | > 256 µg/mL | 0.5 µg/mL (≈ 1 µM) | 
2 | C=C(C/C=C(\C)CCC=C(C)C)CCC(C)(C)/C=C/CC/C(C)=C\CO[C@H](COP(=O)(O)O[C@H]1OC(C(N)=O)[C@@](C)(O)[C@H](OC(N)=O)C1O[C@@H]1OC(CO[C@@H]2OC(CO)[C@@H](O)[C@H](O)C2O)[C@@H](O[C@@H]2OC(C)[C@@H](O[C@@H]3OC(C(=O)NC4=C(O)CCC4=O)[C@H](O)[C@H](O)C3O)[C@H](O)C2NC(C)=O)[C@H](O)C1NC(C)=O)C(=O)O (some centres unmarked) [Moe A, Moenomycin A] |  |  |  |  |  |  |  |  |  |  | 440 nM
